According to US20190201431A1, “EX VIVO METHODS OF INDUCING IDO EXPRESSION IN ANTIGEN PRESENTING CELLS USING A COMPOUND SELECTED FROM THE GROUP CONSISTING OF AZACYTIDINE, AND DECITABINE” (IDOGEN AB, priority 2016, published 2019):

What was measured:
[1] = tested on: IDO1 gene expression in THP-1 cells; test: Induction of IDO1 in THP-1 cells (RT-qPCR); format: cell-based, human; details: 96 hours; for concentration at which the highest level of IDO induction was observed: tested 0.1-10 micromolar; for increase of IDO1 gene expression (maximum over tested concentrations): compound alone
Protocol: THP-1 cells were harvested from appropriate number of T75 flasks. Cells were counted in a Bürker chamber, stained with 0.4% Trypan Blue. The appropriate number of cells for each experiment were transferred to a new tube and centrifuged at 1200 rpm, 5 min at room temperature (RT). The supernatant was discarded and fresh RPMI with 5% FBS were added to get a cell concentration of 2×10^5 cells/mL. The compound was added to the five separate wells in 6-well plates such that five different final concentrations were obtained after adding the cells. A control was added to one well in the 6-well plate to which cells were added. 1×10^6 cells per well were seeded out to achieve a total volume of 5 mL per well. The cells were incubated at 37° C. in 5% CO2 for 96 hours. After 96 hours the assay was stopped and the cells were lysed for the isolation of RNA.
Total RNA was extracted from THP-1 cells using the RNA RNeasy Mini extraction kit (Qiagen), according to the manufacturer's instructions. A SuperScript® VILO™ RT-kit (Thermo Fisher) was used to reverse transcribe 1 μg of total RNA to cDNA and qPCR was performed. The primers used for amplification of the human IDO1 gene were 5′-[…]-3′ (forward; SEQ ID No. 1) and 5′-[…]-3′ (reverse; SEQ ID No. 2). The primers used for amplification of the endogenous reference gene for human HPRT1 were 5′-[…]-3′ (forward; SEQ ID No. 3) and 5′-[…]-3′ (reverse; SEQ ID No. 4). In brief, RT-qPCR was performed in 20 μl reaction, consisting 10 μl PowerUp SYBR Green Master Mix, 0.5 μM of each primer, 4 μl diluted cDNA for amplification of IDO1 and 1.5 μl diluted cDNA for amplification of HPRT1. An iCycler iQ real-time detection system (Stratagene, Mx3000P, La Jolla, Calif., USA) with the following thermal profile: UDG incubation at 50° C. for 2 min, then denaturation at 95° C. for 5 min, followed by 45 cycles at 94° C. for 15 s, 58° C. for 30 s, and 60° C. for 30 s, was used to perform thermocycling and real-time detection of PCR products. After amplification a melting curve analysis was performed. The RT-qPCR experiments were always run in triplicate. IDO1 was normalised to the geometric means of two HPRT1 reference gene, using the ΔCt method. Within-group comparisons were normalized to one control sample, using the ΔΔCt method.

naïve CD4+ CD25− T cells = test: Conversion of CD4+CD25− T cells into CD4+FoxP3+ Tregs in vitro; format: cell-based
Protocol: To assess the effect of decitabine on the generation of Tregs, naïve CD4+ CD25− T cells were cultured with mitomycin C treated APCs plus IL-2, TGFβ and anti-CD3 in the presence or absence of decitabine and numbers of CD4^+FoxP3^+ Tregs were determined by FACS after 72 h. The RNA was isolated from cell lysate, and reverse transcribed to cDNA for RT-qPCR analysis using Taqman primer probes. Expression of genes encoding Foxp3 was normalized to HPRT expression and was calibrated relative to vehicle group.

[2] = tested on: collagen-induced arthritis in DBA/1 mice; test: Treatment of collagen-induced arthritis in vivo; details: 1 mg/kg for 4 days from day of arthritis onset, scored 10 days, vs vehicle (FIG. 3, P<0.05)
Protocol: DBA/1 mice were immunized with bovine type II collagen emulsified in complete Freund's adjuvant. The mice were treated with decitabine (1 mg/kg) for 4 days, starting on the day of arthritis onset. Treatment was then stopped. Negative controls received vehicle alone. Clinical scores were monitored for 10 days following onset of arthritis. A clinical scoring system was used as follows. Arthritis severity was scored by an experienced non-blinded investigator as follows: 0=normal, 1=slight swelling and/or erythema, 2=pronounced swelling, 3=ankylosis. All four limbs were scored, giving a maximum possible score of 12 per animal.

SMILES	concentration at which the highest level of IDO induction was observed [1] [µM]	IDO1 expression (fold change) ([1]; azacytidine 0.1 micromolar, vs H2O:HAc control)	IDO1 expression (fold change) ([1]; azacytidine 0.3 micromolar, vs H2O:HAc control)	IDO1 expression (fold change) ([1]; azacytidine 1 micromolar, vs H2O:HAc control)	IDO1 expression (fold change) ([1]; azacytidine 3 micromolar, vs H2O:HAc control)	IDO1 expression (fold change) ([1]; azacytidine 10 micromolar, vs H2O:HAc control)	increase of IDO1 gene expression (maximum over tested concentrations) ([1]; 0.1-10 micromolar)	relative expression of the Foxp3 gene (RT-qPCR) (naïve CD4+ CD25− T cells; normalized to HPRT, relative to vehicle group, vs control "nil" (FIG. 4C))	frequencies of CD4+FoxP3+ Tregs (FACS) (naïve CD4+ CD25− T cells; with mitomycin C treated APCs, IL-2, TGFβ, anti-CD3, after 72 h, vs control "nil" (FIG. 4B))	dose dependence of IDO1 gene expression ([1]; 0.1-10 micromolar)	IDO1 expression (fold change) ([1]; decitabine 0.1 micromolar, vs DMSO control)	IDO1 expression (fold change) ([1]; decitabine 0.3 micromolar, vs DMSO control)	IDO1 expression (fold change) ([1]; decitabine 1 micromolar, vs DMSO control)	IDO1 expression (fold change) ([1]; decitabine 3 micromolar, vs DMSO control)	IDO1 expression (fold change) ([1]; decitabine 10 micromolar, vs DMSO control)	disease severity (mean clinical score) [2]
Nc1ncn([C@@H]2O[C@H](CO)[C@@H](O)[C@H]2O)c(=O)n1 [azacytidine, 4-Amino-1-(β-D-ribofuranosyl)-1,3,5-triazin-2(1H)-one]	1	0.5	1.2	23	6	8.6	up to 23 fold									
Nc1ncn([C@H]2C[C@H](O)[C@@H](CO)O2)c(=O)n1 [decitabine, 4-Amino-1-(2-deoxy-β-D-ribofuranosyl)-1,3,5-triazin-2(1H)-one]	10						up to 101 fold	increased in a dose-dependent manner	increased in a dose-dependent manner	a dose-related response was observed	6	16.4	40	87	101	successful in reducing disease severity
